# According to patent US8952024B2, “Herbicidal pyrimidone derivatives” (E I du Pont de Nemours and Company, priority 2009, dated 2015):
# Where two headings read alike, the source gives them in different places.
# Experiments:
# Assay in all cases: Test B pre-/postemergence plant response
# Format in all cases: in vivo
# [1] = tested on: woolly cupgrass (Eriochloa villosa); conditions: for pest or weed control at 31 g/ha: 31 g ai/ha; for pest or weed control at 125 g/ha: 125 g ai/ha
# Method in brief: (§1)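 Visually scored on a 0 to 100 scale after 13 to 15 days in greenhouse versus controls. Treatments were preemergence on seeded loam/sand soil and postemergence on 1- to 4-leaf plants.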
# [2] = tested on: ragweed (common ragweed, Ambrosia elatior); conditions: for pest or weed control at 31 g/ha: 31 g ai/ha; for pest or weed control at 125 g/ha: 125 g ai/ha
# Method in brief: as §1
# [3] = tested on: green foxtail (Setaria viridis); conditions: for pest or weed control at 31 g/ha: 31 g ai/ha; for pest or weed control at 125 g/ha: 125 g ai/ha
# Method in brief: as §1
# [4] = tested on: goosegrass (Eleusine indica); conditions: for pest or weed control at 31 g/ha: 31 g ai/ha; for pest or weed control at 125 g/ha: 125 g ai/ha
# Method in brief: as §1
# [5] = tested on: bermudagrass (Cynodon dactylon); conditions: for pest or weed control at 31 g/ha: 31 g ai/ha; for pest or weed control at 125 g/ha: 125 g ai/ha
# Method in brief: as §1
# [6] = tested on: large crabgrass (Digitaria sanguinalis); conditions: for pest or weed control at 31 g/ha: 31 g ai/ha; for pest or weed control at 125 g/ha: 125 g ai/ha
# Method in brief: as §1
# [7] = tested on: lambsquarters (Chenopodium album); conditions: for pest or weed control at 31 g/ha: 31 g ai/ha; for pest or weed control at 125 g/ha: 125 g ai/ha
# Method in brief: as §1
# [8] = tested on: Surinam grass (Brachiaria decumbens); conditions: for pest or weed control at 31 g/ha: 31 g ai/ha; for pest or weed control at 125 g/ha: 125 g ai/ha
# Method in brief: as §1
# [9] = tested on: blackgrass (Alopecurus myosuroides)
# Method in brief: as §1
# [10] = 62 g ai/ha, postemergence, 0 is no effect, 100 is complete control, 13 to 15 days
# [11] = Preemergence, 250 g ai/ha, 0 to 100 scale
smiles,measurement,setting,value
"COCCCn1c(-c2ccccc2)ncc(C(=O)C2=C(O)CCCC2=O)c1=O [Compound 81, 5-[(2-hydroxy-6-oxo-cyclohexen-1-yl)carbonyl]-3-(3-methoxypropyl)-2-phenyl-4(3H)-pyrimidinone]","Cupgrass, Woolly plant response rating (0 to 100 scale)",[1]; [10],75
same,pest or weed control at 31 g/ha,"[1]; Eriochloa villosa, post-emergence, postemergence, scale 0 to 100, 0 is no effect, 100 is complete control, read-out: Plant response rating, Cupgrass, Woolly",65%
same,pest or weed control at 125 g/ha,"[1]; Eriochloa villosa, post-emergence, Postemergence, visual rating after 13 to 15 days, scale 0 (no effect) to 100 (complete control)",90%
same,pest or weed control at 250 g/ha,"[1]; Eriochloa villosa, post-emergence, Postemergence, 250 g ai/ha, scale 0 to 100 (0 no effect, 100 complete control), read-out: Plant response rating, Cupgrass, Woolly",90%
same,pest or weed control at 31 g/ha,"[1]; Eriochloa villosa, pre-emergence, Preemergence, scale 0 to 100 (0 no effect, 100 complete control), read-out: Plant response rating, Cupgrass, Woolly",40%
same,pest or weed control at 62 g/ha,"[1]; Eriochloa villosa, pre-emergence, Preemergence, 62 g ai/ha, scale 0 to 100, 0 no effect, 100 complete control, read-out: Plant response rating, Cupgrass, Woolly",55%
same,pest or weed control at 125 g/ha,"[1]; Eriochloa villosa, pre-emergence, Preemergence, scale 0 to 100, 0 no effect, 100 complete control, read-out: Plant response rating, Cupgrass, Woolly",75%
same,"Cupgrass, Woolly plant response rating",[1]; [11],85
same,Ragweed plant response rating (0 to 100 scale),[2]; [10],80
same,pest or weed control at 31 g/ha,"[2]; Ambrosia artemisiifolia, post-emergence, 360 h, postemergence, scale 0 to 100, 0 is no effect, 100 is complete control, read-out: Plant response rating, Ragweed",75%
same,pest or weed control at 125 g/ha,"[2]; Ambrosia artemisiifolia, post-emergence, 360 h, Postemergence, visual rating after 13 to 15 days, scale 0 (no effect) to 100 (complete control)",98%
same,pest or weed control at 250 g/ha,"[2]; Ambrosia artemisiifolia, post-emergence, 360 h, Postemergence, 250 g ai/ha, scale 0 to 100 (0 no effect, 100 complete control), read-out: Plant response rating, Ragweed",100%
same,pest or weed control at 31 g/ha,"[2]; Ambrosia artemisiifolia, pre-emergence, 360 h, Preemergence, scale 0 to 100 (0 no effect, 100 complete control), read-out: Plant response rating, Ragweed",60%
same,pest or weed control at 62 g/ha,"[2]; Ambrosia artemisiifolia, pre-emergence, 360 h, Preemergence, 62 g ai/ha, scale 0 to 100 (0 no effect, 100 complete control), read-out: Plant response rating, Ragweed",85%
same,pest or weed control at 125 g/ha,"[2]; Ambrosia artemisiifolia, pre-emergence, 360 h, Preemergence, scale 0 to 100, 0 no effect, 100 complete control, read-out: Plant response rating, Ragweed",90%
same,Ragweed plant response rating,[2]; [11],90
same,"Foxtail, Green plant response rating (0 to 100 scale)",[3]; [10],85
same,"Foxtail, Green plant response rating",[3]; [11],100
same,pest or weed control at 31 g/ha,"[3]; Setaria viridis, post-emergence, postemergence, scale 0 to 100, 0 is no effect, 100 is complete control, read-out: Plant response rating, Foxtail, Green",5%
same,pest or weed control at 125 g/ha,"[3]; Setaria viridis, post-emergence, Postemergence, visual rating after 13 to 15 days, scale 0 (no effect) to 100 (complete control)",95%
same,pest or weed control at 250 g/ha,"[3]; Setaria viridis, post-emergence, Postemergence, 250 g ai/ha, scale 0 to 100 (0 no effect, 100 complete control), read-out: Plant response rating, Foxtail, Green",95%
same,pest or weed control at 31 g/ha,"[3]; Setaria viridis, pre-emergence, Preemergence, scale 0 to 100 (0 no effect, 100 complete control), read-out: Plant response rating, Foxtail, Green",80%
same,pest or weed control at 62 g/ha,"[3]; Setaria viridis, pre-emergence, Preemergence, 62 g ai/ha, scale 0 to 100, 0 no effect, 100 complete control, read-out: Plant response rating, Foxtail, Green",90%
same,pest or weed control at 125 g/ha,"[3]; Setaria viridis, pre-emergence, Preemergence, scale 0 to 100, 0 no effect, 100 complete control, read-out: Plant response rating, Foxtail, Green",100%
same,Goosegrass plant response rating (0 to 100 scale),[4]; [10],70
same,pest or weed control at 31 g/ha,"[4]; Eleusine indica, post-emergence, postemergence, scale 0 to 100, 0 is no effect, 100 is complete control, read-out: Plant response rating, Goosegrass",65%
same,pest or weed control at 125 g/ha,"[4]; Eleusine indica, post-emergence, Postemergence, visual rating after 13 to 15 days, scale 0 (no effect) to 100 (complete control)",70%
same,pest or weed control at 250 g/ha,"[4]; Eleusine indica, post-emergence, Postemergence, 250 g ai/ha, scale 0 to 100 (0 no effect, 100 complete control), read-out: Plant response rating, Goosegrass",80%
same,pest or weed control at 31 g/ha,"[4]; Eleusine indica, pre-emergence, Preemergence, scale 0 to 100 (0 no effect, 100 complete control), read-out: Plant response rating, Goosegrass",98%
same,pest or weed control at 62 g/ha,"[4]; Eleusine indica, pre-emergence, Preemergence, 62 g ai/ha, scale 0 to 100, 0 no effect, 100 complete control, read-out: Plant response rating, Goosegrass",98%
same,pest or weed control at 125 g/ha,"[4]; Eleusine indica, pre-emergence, Preemergence, scale 0 to 100, 0 no effect, 100 complete control, read-out: Plant response rating, Goosegrass",100%
same,Goosegrass plant response rating,[4]; [11],100
same,Bermudagrass plant response rating (0 to 100 scale),[5]; [10],85
same,pest or weed control at 31 g/ha,"[5]; Cynodon dactylon, post-emergence, postemergence, scale 0 to 100, 0 is no effect, 100 is complete control, read-out: Plant response rating, Bermudagrass",85%
same,pest or weed control at 125 g/ha,"[5]; Cynodon dactylon, post-emergence, Postemergence, visual rating after 13 to 15 days, scale 0 (no effect) to 100 (complete control)",95%
same,pest or weed control at 250 g/ha,"[5]; Cynodon dactylon, post-emergence, Postemergence, 250 g ai/ha, scale 0 to 100 (0 no effect, 100 complete control), read-out: Plant response rating, Bermudagrass",95%
same,pest or weed control at 31 g/ha,"[5]; Cynodon dactylon, pre-emergence, Preemergence, scale 0 to 100 (0 no effect, 100 complete control), read-out: Plant response rating, Bermudagrass",100%
same,pest or weed control at 62 g/ha,"[5]; Cynodon dactylon, pre-emergence, Preemergence, 62 g ai/ha, scale 0 to 100, 0 no effect, 100 complete control, read-out: Plant response rating, Bermudagrass",100%
same,pest or weed control at 125 g/ha,"[5]; Cynodon dactylon, pre-emergence, Preemergence, scale 0 to 100, 0 no effect, 100 complete control, read-out: Plant response rating, Bermudagrass",100%
same,Bermudagrass plant response rating,"[5]; Preemergence, 250 g ai/ha, 0 to 100 scale, 0 no effect, 100 complete control",100
same,"Crabgrass, Large plant response rating (0 to 100 scale)",[6]; [10],95
same,pest or weed control at 31 g/ha,"[6]; Digitaria sanguinalis, post-emergence, postemergence, scale 0 to 100, 0 is no effect, 100 is complete control, read-out: Plant response rating, Crabgrass, Large",85%
same,pest or weed control at 125 g/ha,"[6]; Digitaria sanguinalis, post-emergence, Postemergence, visual rating after 13 to 15 days, scale 0 (no effect) to 100 (complete control)",95%
same,pest or weed control at 250 g/ha,"[6]; Digitaria sanguinalis, post-emergence, Postemergence, 250 g ai/ha, scale 0 to 100 (0 no effect, 100 complete control), read-out: Plant response rating, Crabgrass, Large",98%
same,pest or weed control at 31 g/ha,"[6]; Digitaria sanguinalis, pre-emergence, Preemergence, scale 0 to 100 (0 no effect, 100 complete control), read-out: Plant response rating, Crabgrass, Large",100%
same,pest or weed control at 62 g/ha,"[6]; Digitaria sanguinalis, pre-emergence, Preemergence, 62 g ai/ha, scale 0 to 100, 0 no effect, 100 complete control, read-out: Plant response rating, Crabgrass, Large",100%
same,pest or weed control at 125 g/ha,"[6]; Digitaria sanguinalis, pre-emergence, Preemergence, scale 0 to 100, 0 no effect, 100 complete control, read-out: Plant response rating, Crabgrass, Large",100%
same,"Crabgrass, Large plant response rating",[6]; [11],100
same,Lambsquarters plant response rating (0 to 100 scale),[7]; [10],98
same,pest or weed control at 31 g/ha,"[7]; Chenopodium album, post-emergence, postemergence, scale 0 to 100, 0 is no effect, 100 is complete control, read-out: Plant response rating, Lambsquarters",95%
same,pest or weed control at 125 g/ha,"[7]; Chenopodium album, post-emergence, Postemergence, visual rating after 13 to 15 days, scale 0 (no effect) to 100 (complete control)",100%
same,pest or weed control at 250 g/ha,"[7]; Chenopodium album, post-emergence, Postemergence, 250 g ai/ha, scale 0 to 100 (0 no effect, 100 complete control), read-out: Plant response rating, Lambsquarters",100%
same,pest or weed control at 31 g/ha,"[7]; Chenopodium album, pre-emergence, Preemergence, scale 0 to 100 (0 no effect, 100 complete control), read-out: Plant response rating, Lambsquarters",98%
same,pest or weed control at 62 g/ha,"[7]; Chenopodium album, pre-emergence, Preemergence, 62 g ai/ha, scale 0 to 100, 0 no effect, 100 complete control, read-out: Plant response rating, Lambsquarters",98%
same,pest or weed control at 125 g/ha,"[7]; Chenopodium album, pre-emergence, Preemergence, scale 0 to 100, 0 no effect, 100 complete control, read-out: Plant response rating, Lambsquarters",98%
same,Lambsquarters plant response rating,[7]; [11],98
same,Surinam Grass plant response rating (0 to 100 scale),[8]; [10],90
same,Surinam Grass plant response rating,[8]; [11],100
same,pest or weed control at 31 g/ha,"[8]; Urochloa decumbens, post-emergence, postemergence, scale 0 to 100, 0 is no effect, 100 is complete control, read-out: Plant response rating, Surinam Grass",75%
same,pest or weed control at 125 g/ha,"[8]; Urochloa decumbens, post-emergence, Postemergence, visual rating after 13 to 15 days, scale 0 (no effect) to 100 (complete control)",98%
same,pest or weed control at 250 g/ha,"[8]; Urochloa decumbens, post-emergence, Postemergence, 250 g ai/ha, scale 0 to 100 (0 no effect, 100 complete control), read-out: Plant response rating, Surinam Grass",100%
same,pest or weed control at 31 g/ha,"[8]; Urochloa decumbens, pre-emergence, Preemergence, scale 0 to 100 (0 no effect, 100 complete control), read-out: Plant response rating, Surinam Grass",98%
same,pest or weed control at 62 g/ha,"[8]; Urochloa decumbens, pre-emergence, Preemergence, 62 g ai/ha, scale 0 to 100 (0 no effect, 100 complete control), read-out: Plant response rating, Surinam Grass",100%
same,pest or weed control at 125 g/ha,"[8]; Urochloa decumbens, pre-emergence, Preemergence, scale 0 to 100, 0 no effect, 100 complete control, read-out: Plant response rating, Surinam Grass",100%
same,Blackgrass plant response rating (0 to 100 scale),[9]; [10],10
same,pest or weed control at 31 g/ha,"[9]; Alopecurus myosuroides, post-emergence, 360 h, 31 g ai/ha, postemergence, scale 0 to 100, 0 is no effect, 100 is complete control, read-out: Plant response rating, Blackgrass",5%
same,pest or weed control at 125 g/ha,"[9]; Alopecurus myosuroides, post-emergence, 360 h, Postemergence, 125 g ai/ha, visual rating after 13 to 15 days, scale 0 (no effect) to 100 (complete control)",30%
same,pest or weed control at 250 g/ha,"[9]; Alopecurus myosuroides, post-emergence, 360 h, Postemergence, 250 g ai/ha, scale 0 to 100 (0 no effect, 100 complete control), read-out: Plant response rating, Blackgrass",30%
